Experimental data: PubChem BioAssay (NCI)
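Method: 48-hour compound exposure of cells in 96-well plates, five concentrations, linear interpolation of endpoints. GI50: concentration for 50% inhibition of growth. TGI: concentration producing complete growth inhibition.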

Columns and labels:
Assay in all cases: NCI-60 cell line screen, 48 h
U251 CNS = tested on: U251 CNS
OVCAR-4 ovarian = tested on: OVCAR-4 ovarian
RXF 393 renal = tested on: RXF 393 renal
786-0 renal = tested on: 786-0 renal
RPMI-8226 leukemia = tested on: RPMI-8226 leukemia
IGROV1 ovarian = tested on: IGROV1 ovarian
CAKI-1 renal = tested on: CAKI-1 renal
HCC-2998 colon = tested on: HCC-2998 colon

O=C(c1ccc(F)c(F)c1Nc1ccc(I)cc1F)N1CC(O)([C@H]2CCCCN2)C1
GI50 (U251 CNS): 3.5 µM | TGI (U251 CNS): 18.9 µM | GI50 (OVCAR-4 ovarian): 3.81 µM | TGI (OVCAR-4 ovarian): 17.7 µM | GI50 (RXF 393 renal): 2.08 µM | TGI (RXF 393 renal): 8.76 µM | GI50 (786-0 renal): 7.72 µM | TGI (786-0 renal): 21.7 µM | GI50 (RPMI-8226 leukemia): 4.03 µM | TGI (RPMI-8226 leukemia): 20.8 µM | GI50 (IGROV1 ovarian): 1.43 µM | TGI (IGROV1 ovarian): 13.9 µM | GI50 (CAKI-1 renal): 6.28 µM | TGI (CAKI-1 renal): 20.3 µM | GI50 (HCC-2998 colon): 0.223 µM | TGI (HCC-2998 colon): 2.62 µM

C[C@H]1O[C@@H](O[C@H]2[C@@H](O)C[C@H](O[C@H]3[C@@H](O)C[C@H](O[C@H]4CC[C@]5(C)C6C[C@@H](O)[C@]7(C)[C@@H](C8=CC(=O)OC8)CC[C@]7(O)C6CC[C@@H]5C4)O[C@@H]3C)O[C@@H]2C)C[C@H](O)[C@@H]1O (some centres not stated)
GI50 (U251 CNS): 0.0668 µM | TGI (U251 CNS): 0.145 µM | GI50 (OVCAR-4 ovarian): 0.101 µM | TGI (OVCAR-4 ovarian): 0.306 µM | GI50 (RXF 393 renal): 0.0634 µM | TGI (RXF 393 renal): 0.198 µM | GI50 (786-0 renal): 0.06 µM | TGI (786-0 renal): 0.16 µM | GI50 (RPMI-8226 leukemia): 0.117 µM | TGI (RPMI-8226 leukemia): 0.377 µM | GI50 (IGROV1 ovarian): 0.145 µM | TGI (IGROV1 ovarian): 3.45 µM | GI50 (CAKI-1 renal): 0.0857 µM | TGI (CAKI-1 renal): 0.261 µM | GI50 (HCC-2998 colon): 0.147 µM | TGI (HCC-2998 colon): 0.486 µM

O=C1OCC2=C1C(c1ccccc1)c1cc3c(cc1N2CCO)CCC3 (configuration not stated)
GI50 (U251 CNS): 0.116 µM | TGI (U251 CNS): > 25 µM | GI50 (OVCAR-4 ovarian): 0.127 µM | TGI (OVCAR-4 ovarian): > 25 µM | GI50 (RXF 393 renal): 0.0597 µM | TGI (RXF 393 renal): 0.138 µM | GI50 (786-0 renal): 0.0988 µM | TGI (786-0 renal): > 14.5 µM | GI50 (RPMI-8226 leukemia): 0.106 µM | TGI (RPMI-8226 leukemia): > 25 µM | GI50 (IGROV1 ovarian): 0.0799 µM | TGI (IGROV1 ovarian): 0.774 µM | GI50 (CAKI-1 renal): 0.0868 µM | TGI (CAKI-1 renal): > 25 µM | GI50 (HCC-2998 colon): 0.115 µM | TGI (HCC-2998 colon): 0.941 µM

CCc1ccc(/C(C#N)=C/C=C/c2ccccc2)cc1
GI50 (U251 CNS): 3.16 µM | TGI (U251 CNS): > 100 µM | GI50 (OVCAR-4 ovarian): 18.4 µM | TGI (OVCAR-4 ovarian): > 100 µM | GI50 (RXF 393 renal): 1.29 µM | TGI (RXF 393 renal): 4.09 µM | GI50 (786-0 renal): 11.1 µM | TGI (786-0 renal): > 100 µM | GI50 (RPMI-8226 leukemia): 3.41 µM | TGI (RPMI-8226 leukemia): > 69 µM | GI50 (IGROV1 ovarian): 7.55 µM | TGI (IGROV1 ovarian): > 100 µM | GI50 (CAKI-1 renal): 10.1 µM | TGI (CAKI-1 renal): > 100 µM | GI50 (HCC-2998 colon): 6.65 µM | TGI (HCC-2998 colon): 68.3 µM

Cc1ccccc1NC(=O)N/C(N)=N/c1nc2ccccc2s1
GI50 (U251 CNS): 0.0547 µM | TGI (U251 CNS): > 100 µM | GI50 (OVCAR-4 ovarian): 0.667 µM | TGI (OVCAR-4 ovarian): > 100 µM | GI50 (RXF 393 renal): 0.03 µM | TGI (RXF 393 renal): 0.464 µM | GI50 (786-0 renal): 0.0646 µM | TGI (786-0 renal): > 100 µM | GI50 (RPMI-8226 leukemia): 0.0402 µM | TGI (RPMI-8226 leukemia): 2.46 µM | GI50 (IGROV1 ovarian): 0.0796 µM | TGI (IGROV1 ovarian): > 100 µM | GI50 (CAKI-1 renal): 0.0499 µM | TGI (CAKI-1 renal): > 100 µM | GI50 (HCC-2998 colon): 0.145 µM | TGI (HCC-2998 colon): > 100 µM

CCCCN(CCCC)c1cc(C(=O)CCCCCN)c2ccccc2n1
GI50 (U251 CNS): 1.77 µM | TGI (U251 CNS): 3.23 µM | GI50 (RXF 393 renal): 1.53 µM | TGI (RXF 393 renal): 2.89 µM | GI50 (786-0 renal): 1.83 µM | TGI (786-0 renal): 3.27 µM | GI50 (RPMI-8226 leukemia): 2.95 µM | TGI (RPMI-8226 leukemia): 6.53 µM | GI50 (CAKI-1 renal): 1.86 µM | TGI (CAKI-1 renal): 4.38 µM | GI50 (HCC-2998 colon): 1.76 µM | TGI (HCC-2998 colon): 3.21 µM

COc1cc(-c2nn(C)nc2-c2cc3ccccc3s2)cc(OC)c1OC
GI50 (U251 CNS): 0.0783 µM | TGI (U251 CNS): 30.5 µM | GI50 (RXF 393 renal): 0.286 µM | TGI (RXF 393 renal): 46.9 µM | GI50 (786-0 renal): 0.312 µM | TGI (786-0 renal): > 100 µM | GI50 (RPMI-8226 leukemia): 0.362 µM | TGI (RPMI-8226 leukemia): > 100 µM | GI50 (IGROV1 ovarian): 0.707 µM | TGI (IGROV1 ovarian): > 100 µM | GI50 (CAKI-1 renal): 3.77 µM | TGI (CAKI-1 renal): > 100 µM | GI50 (HCC-2998 colon): 0.407 µM | TGI (HCC-2998 colon): > 100 µM

Clc1ccc(N/N=C/c2ccccn2)nc1
GI50 (U251 CNS): 0.459 µM | TGI (U251 CNS): > 100 µM | GI50 (OVCAR-4 ovarian): 0.321 µM | TGI (OVCAR-4 ovarian): > 100 µM | GI50 (RXF 393 renal): 0.492 µM | TGI (RXF 393 renal): 15.7 µM | GI50 (786-0 renal): 0.339 µM | TGI (786-0 renal): > 100 µM | GI50 (RPMI-8226 leukemia): 0.462 µM | TGI (RPMI-8226 leukemia): 18.7 µM | GI50 (IGROV1 ovarian): 0.441 µM | TGI (IGROV1 ovarian): > 100 µM | GI50 (CAKI-1 renal): 0.341 µM | TGI (CAKI-1 renal): > 22.7 µM | GI50 (HCC-2998 colon): 0.422 µM | TGI (HCC-2998 colon): > 100 µM

Cc1cc(N2CCOCC2)nc(N(CCNc2ccnc3cc(Cl)ccc23)Cc2ccco2)n1
GI50 (U251 CNS): 3.21 µM | TGI (U251 CNS): 12.4 µM | GI50 (OVCAR-4 ovarian): 2.4 µM | TGI (OVCAR-4 ovarian): 8.12 µM | GI50 (RXF 393 renal): 1.64 µM | TGI (RXF 393 renal): 4.29 µM | GI50 (786-0 renal): 2.14 µM | TGI (786-0 renal): 4.91 µM | GI50 (IGROV1 ovarian): 3.92 µM | TGI (IGROV1 ovarian): 23.1 µM | GI50 (HCC-2998 colon): 6.12 µM | TGI (HCC-2998 colon): 44.8 µM

C[CH2][Sn]1([CH2]C)[O]C2C(O)OC(CO)C(O)C2[O]1 (configuration not stated)
GI50 (U251 CNS): 17.9 µM | TGI (U251 CNS): 36.9 µM | GI50 (OVCAR-4 ovarian): 14.8 µM | TGI (OVCAR-4 ovarian): 36.9 µM | GI50 (RXF 393 renal): 27.6 µM | TGI (RXF 393 renal): > 100 µM | GI50 (786-0 renal): 23 µM | TGI (786-0 renal): 68.1 µM | GI50 (RPMI-8226 leukemia): 7.16 µM | TGI (RPMI-8226 leukemia): 23.8 µM | GI50 (IGROV1 ovarian): 38.7 µM | TGI (IGROV1 ovarian): > 100 µM | GI50 (CAKI-1 renal): 31.1 µM | TGI (CAKI-1 renal): > 100 µM

O=C(Nc1cccnc1)c1cccs1
GI50 (U251 CNS): 1.86 µM | TGI (U251 CNS): > 100 µM | GI50 (OVCAR-4 ovarian): 1.11 µM | TGI (OVCAR-4 ovarian): > 100 µM | GI50 (RXF 393 renal): 7.36 µM | TGI (RXF 393 renal): > 100 µM | GI50 (786-0 renal): 6.77 µM | TGI (786-0 renal): > 100 µM | GI50 (IGROV1 ovarian): > 100 µM | TGI (IGROV1 ovarian): > 100 µM | GI50 (CAKI-1 renal): 1.4 µM | TGI (CAKI-1 renal): > 100 µM | GI50 (HCC-2998 colon): 5.56 µM | TGI (HCC-2998 colon): > 100 µM

NCC(=O)Nc1ccc(-n2nc(C(F)(F)F)cc2-c2ccc3c(ccc4ccccc43)c2)cc1
GI50 (RXF 393 renal): 1.38 µM | TGI (RXF 393 renal): 2.75 µM | GI50 (786-0 renal): 1.47 µM | TGI (786-0 renal): 3.06 µM | GI50 (RPMI-8226 leukemia): 1.29 µM | TGI (RPMI-8226 leukemia): 4.08 µM | GI50 (CAKI-1 renal): 1.17 µM | TGI (CAKI-1 renal): 2.66 µM

COC(=O)C1=C2C3=C(C(=O)c4ccccc4C3=O)N(Cc3ccccc3)C2(OC(C)=O)C=CC1=O (configuration not stated)
GI50 (U251 CNS): 9.86 µM | TGI (U251 CNS): 39.4 µM | GI50 (OVCAR-4 ovarian): 34.4 µM | TGI (OVCAR-4 ovarian): > 100 µM | GI50 (786-0 renal): 2.28 µM | TGI (786-0 renal): 10.1 µM | GI50 (RPMI-8226 leukemia): 1.09 µM | TGI (RPMI-8226 leukemia): 8.83 µM | GI50 (IGROV1 ovarian): 16.5 µM | TGI (IGROV1 ovarian): > 100 µM | GI50 (CAKI-1 renal): 1.89 µM | TGI (CAKI-1 renal): 13.2 µM | GI50 (HCC-2998 colon): 4.67 µM | TGI (HCC-2998 colon): 47.4 µM

Nc1ccccc1C#Cc1ccccc1C#Cc1ccccc1N
GI50 (U251 CNS): 4.5 µM | TGI (U251 CNS): 17.3 µM | GI50 (OVCAR-4 ovarian): 23.3 µM | TGI (OVCAR-4 ovarian): 80.9 µM | GI50 (RXF 393 renal): 9.74 µM | TGI (RXF 393 renal): 32 µM | GI50 (786-0 renal): 11.9 µM | TGI (786-0 renal): 31.2 µM | GI50 (IGROV1 ovarian): 10.2 µM | TGI (IGROV1 ovarian): 30.4 µM | GI50 (CAKI-1 renal): 4.41 µM | TGI (CAKI-1 renal): 18.5 µM | GI50 (HCC-2998 colon): 14 µM | TGI (HCC-2998 colon): 41 µM

O=C(Nc1cccc(-n2cc(-c3ccncc3)c(-c3cc(O)cc(Cl)c3)n2)c1)Nc1ccc(Cl)c(Cl)c1
GI50 (U251 CNS): 1.44 µM | TGI (U251 CNS): 3.09 µM | GI50 (RXF 393 renal): 0.555 µM | TGI (RXF 393 renal): 2.46 µM | GI50 (786-0 renal): 1.48 µM | TGI (786-0 renal): 3.71 µM | GI50 (RPMI-8226 leukemia): 1.44 µM | TGI (RPMI-8226 leukemia): 4.3 µM | GI50 (IGROV1 ovarian): 2.86 µM | TGI (IGROV1 ovarian): 9.23 µM | GI50 (CAKI-1 renal): 2.21 µM | TGI (CAKI-1 renal): 7.01 µM | GI50 (HCC-2998 colon): 2.93 µM | TGI (HCC-2998 colon): 8.99 µM
